Assay results from patent US10215749B2, “Ported parallel plate flow chamber and methods for use thereof” (priority 2013, dated 2019).

Test system: Human Aortic Endothelial Cells
Assay: Gene expression differences (Affymetrix PRIMEVIEW microarray) under shear stress conditions with PI-103 treatment in a flow chamber
Format: cell-based
Procedure: Cells were cultured on a collagen I-coated growth surface under static conditions (no flow) until confluency was reached. Cells were then either exposed to fluid flow in a flow chamber at 0.2 or 1.0 Pa for 20 hours, or left in static culture for the same amount of time. At 20 hours, RNA was isolated from the cells using an Ambion MIRVANA™ RNA isolation kit (Life Technologies, Foster City Calif., United States of America) and processed for analysis on Affymetrix PRIMEVIEW™ arrays (Affymetrix, Inc., Santa Clara, Calif., United States of America). Three experiments were performed for each condition, providing replicates for microarray analysis.
Gene expression differences in Human Aortic Endothelial Cells were also tested under different shear stress conditions, using a flow chamber device, in the presence or absence of the PI3K/Akt and mTOR inhibitor PI-103 (3-[4-(4-morpholinyl)pyrido[3′,2′:4,5]furo[3,2-d]pyrimidin-2-yl]-phenol); CAS No. 371935-74-9) at a concentration of 100 nM.
Cells were grown on a collagen-I coated growth surface and treated with 100 nM PI-103 in the presence of flow. For the 4 hour time point, cells were exposed to fluid flow for 16 hours and treated with PI-103 for the last 4 hours in the presence of flow. Cells were also treated with PI-103 for the entire duration of flow (20 hours). Data was generated using RNA extracted as described in Example 1, and analyzed on Affymetrix PRIMEVIEW™ arrays (Affymetrix, Inc.,). Three experiments were performed for each condition, providing replicates for microarray analysis.

Oc1cccc(-c2nc(N3CCOCC3)c3oc4ncccc4c3n2)c1 [PI-103, 3-[4-(4-morpholinyl)pyrido[3′,2′:4,5]furo[3,2-d]pyrimidin-2-yl]-phenol]
No. of Genes Changed (0.2 Pa shear stress, 100 nM PI-103, 4 hr drug exposure, vs non-treated cells under same flow): 830 | No. of Genes Changed (0.2 Pa shear stress, 100 nM PI-103, 20 hr drug exposure, vs non-treated cells under same flow): 113 | No. of Genes Changed (1.0 Pa shear stress, 100 nM PI-103, 4 hr drug exposure, vs non-treated cells under same flow): 1563 | No. of Genes Changed (1.0 Pa shear stress, 100 nM PI-103, 20 hr drug exposure, vs non-treated cells under same flow): 119 | No. of Genes Changed (No Shear (static), 100 nM PI-103, 4 hr drug exposure, vs non-treated cells under same condition): 130 | No. of Genes Changed (No Shear (static), 100 nM PI-103, 20 hr drug exposure, vs non-treated cells under same condition): 159
